Test results published in PubChem BioAssay AID194 (DTP/NCI, 2004).
Several values for one entry are separate records, joined by “and”; a condition that tells them apart may be missing. Equal values may be shown once. Records with an inconclusive call do not appear. Where a SMILES comes first, the peptide text is derived from it. Bridges are numbered along the chain shown (N, C = ends). Roman numbers before positions name the chains, in order. [ ]: non-standard residue; d: D form. The star is where a group is joined. Quinoxaline2carbonyl = O=C(c1cnc2ccccc2n1)*; NMeV = CN[CH](C(=O)O)C(C)C; NMeC = CN[CH](CS)C(=O)O

Tested on: BDF1 mice, B16 melanoma s.c., survival/tumor T/C
Assay: NCI In Vivo Anticancer Drug Screen. Data for tumor model B16 Melanoma (subcutaneous) in B6D2F1 (BDF1) mice
Details: endpoint: median survival time, higher = longer survival
Experimental: The antitumor activity of compounds was measured in mice bearing transplantable tumors. Survival or tumor size were measured and the results are expressed as the measurement made in the treated group (T) divided by the measurement made in the vehicle treated control group (C). The tumor model used in this assay is B16 Melanoma (subcutaneous) in B6D2F1 (BDF1) mice

CCOc1ccc2nc(S(N)(=O)=O)sc2c1
T/C (dose: 3.75 mg/kg/injection, schedule: Q01DX009 (ip), vehicle: saline): 121 % of control
T/C (dose: 7.5 mg/kg/injection, schedule: Q01DX009 (ip), vehicle: saline): 123 % of control
T/C (dose: 15.0 mg/kg/injection, schedule: Q01DX009 (ip), vehicle: saline): 121 % of control
T/C (dose: 30.0 mg/kg/injection, schedule: Q01DX009 (ip), vehicle: saline): 95 % of control

CCCCS(=N)(=O)CC[C@H](N)C(=O)O (stereo partly drawn)
T/C (dose: 444.0 mg/kg/injection, schedule: Q04HX003 (ip), vehicle: saline): 104 % of control
T/C (dose: 888.0 mg/kg/injection, schedule: Q04HX003 (ip), vehicle: saline): 100 % of control
T/C (dose: 1776.0 mg/kg/injection, schedule: Q04HX003 (ip), vehicle: saline): 102 % of control

CC1NC(=O)C(NC(=O)c2cnc3ccccc3n2)COC(=O)C(C(C)C)N(C)C(=O)C2CSSCC(C(=O)N(C)C(C(C)C)C(=O)OCC(NC(=O)c3cnc4ccccc4n3)C(=O)NC(C)C(=O)N2C)N(C)C1=O (stereo not drawn) (I: Quinoxaline2carbonyl-SA[NMeC][NMeV] / II: Quinoxaline2carbonyl-SA[NMeC][NMeV]; ester I:1-II:C, I:C-II:1; disulfide I:3-II:3; configuration not given here)
T/C (dose: 11.2 micrograms/kg/injection, schedule: Q01DX009 (ip), vehicle: Klucel (hydroxypropylcellulose) (HPC)): 91 % of control
T/C (dose: 22.5 micrograms/kg/injection, schedule: Q01DX009 (ip), vehicle: Klucel (hydroxypropylcellulose) (HPC)): 107 % of control
T/C (dose: 45.0 micrograms/kg/injection, schedule: Q01DX009 (ip), vehicle: Klucel (hydroxypropylcellulose) (HPC)): 109 % of control
T/C (dose: 90.0 micrograms/kg/injection, schedule: Q01DX009 (ip), vehicle: Klucel (hydroxypropylcellulose) (HPC)): 104 % of control

NC(C/[N+]([O-])=N/O)C(=O)O (stereo not drawn)
T/C (dose: 8.75 mg/kg/injection, schedule: Q01DX010 (ip), vehicle: alkali diluted with saline): 96 % of control
T/C (dose: 8.78 mg/kg/injection, schedule: Q01DX010 (ip), vehicle: alkali diluted with saline): 100 % of control
T/C (dose: 13.2 mg/kg/injection, schedule: Q01DX010 (ip), vehicle: alkali diluted with saline): 152 % of control and 154 % of control
T/C (dose: 29.6 mg/kg/injection, schedule: Q01DX010 (ip), vehicle: alkali diluted with saline): 93 % of control and 96 % of control
T/C (dose: 40.0 mg/kg/injection, schedule: Q01DX009 (ip), vehicle: Klucel (hydroxypropylcellulose) (HPC)): 103 % of control
T/C (dose: 44.4 mg/kg/injection, schedule: Q01DX010 (ip), vehicle: alkali diluted with saline): 104 % of control
T/C (dose: 66.7 mg/kg/injection, schedule: Q01DX010 (ip), vehicle: alkali diluted with saline): 122 % of control
T/C (dose: 300.0 mg/kg/injection, schedule: Q01DX001 (ip), vehicle: Klucel (hydroxypropylcellulose) (HPC)): 87 % of control
T/C (dose: 300.0 mg/kg/injection, schedule: Q04DX003 (ip), vehicle: Klucel (hydroxypropylcellulose) (HPC)): 93 % of control
T/C (dose: 500.0 mg/kg/injection, schedule: Q01DX001 (ip), vehicle: Klucel (hydroxypropylcellulose) (HPC)): 97 % of control

CCO/C=C1\SC(=S)N(c2ccc(C(=O)O)cc2)C1=O
T/C (dose: 3.12 mg/kg/injection, schedule: Q01DX009 (ip), vehicle: Klucel (hydroxypropylcellulose) (HPC)): 110 % of control
T/C (dose: 6.25 mg/kg/injection, schedule: Q01DX009 (ip), vehicle: Klucel (hydroxypropylcellulose) (HPC)): 101 % of control
T/C (dose: 12.5 mg/kg/injection, schedule: Q01DX009 (ip), vehicle: Klucel (hydroxypropylcellulose) (HPC)): 118 % of control
T/C (dose: 50.0 mg/kg/injection, schedule: Q01DX009 (ip), vehicle: Klucel (hydroxypropylcellulose) (HPC)): 121 % of control
T/C (dose: 100.0 mg/kg/injection, schedule: Q01DX009 (ip), vehicle: Klucel (hydroxypropylcellulose) (HPC)): 121 % of control

c1ccc(-c2csc3c4ccccc4c4ccccc4[n+]23)cc1
T/C (dose: 0.5 mg/kg/injection, schedule: Q01DX009 (ip), vehicle: suspension in saline): 114 % of control
T/C (dose: 1.0 mg/kg/injection, schedule: Q01DX009 (ip), vehicle: suspension in saline): 124 % of control

O=c1[nH]c(=O)n(C2CC(O)C(CO)O2)cc1C(F)(F)F (stereo not drawn)
T/C (dose: 10.0 mg/kg/injection, schedule: Q01DX009 (ip), vehicle: saline): 103 % of control
T/C (dose: 20.0 mg/kg/injection, schedule: Q01DX009 (ip), vehicle: saline): 104 % of control and 111 % of control
T/C (dose: 40.0 mg/kg/injection, schedule: Q01DX009 (ip), vehicle: saline): 106 % of control
T/C (dose: 80.0 mg/kg/injection, schedule: Q01DX009 (ip), vehicle: saline): 89 % of control
T/C (dose: 160.0 mg/kg/injection, schedule: Q01DX009 (ip), vehicle: saline): 111 % of control
